In patent publication US10577374B2, “Bruton's tyrosine kinase inhibitors” (priority 2009, dated 2020):

Biological target: BTK (Homo sapiens (Human), UniProt Q06187)
Test: In vitro BTK kinase assay: BTK-POLYGAT-LS ASSAY
Type: biochemical
Settings: read-out: IC50 (10 uM ATP), polyGAT 100 nM, BTK 0.25 nM

Chain of BTK (Q06187 whole entry): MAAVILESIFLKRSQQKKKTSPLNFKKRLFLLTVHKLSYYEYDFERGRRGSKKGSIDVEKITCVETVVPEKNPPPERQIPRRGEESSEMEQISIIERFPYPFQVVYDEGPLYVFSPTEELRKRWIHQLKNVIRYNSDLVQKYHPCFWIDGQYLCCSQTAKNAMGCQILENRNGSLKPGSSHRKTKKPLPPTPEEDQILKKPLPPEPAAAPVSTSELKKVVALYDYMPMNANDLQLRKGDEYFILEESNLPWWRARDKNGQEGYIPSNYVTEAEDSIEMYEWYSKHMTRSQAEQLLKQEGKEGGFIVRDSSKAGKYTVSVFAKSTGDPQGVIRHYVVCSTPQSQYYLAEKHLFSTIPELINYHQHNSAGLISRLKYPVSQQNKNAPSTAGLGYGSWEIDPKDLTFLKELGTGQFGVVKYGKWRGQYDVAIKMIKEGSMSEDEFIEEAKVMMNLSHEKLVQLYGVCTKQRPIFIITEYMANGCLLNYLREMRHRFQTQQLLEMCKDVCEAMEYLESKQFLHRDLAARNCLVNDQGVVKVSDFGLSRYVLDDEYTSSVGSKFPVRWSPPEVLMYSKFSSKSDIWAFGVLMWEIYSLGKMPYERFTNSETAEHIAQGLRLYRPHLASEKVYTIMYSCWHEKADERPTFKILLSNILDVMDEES

IC50: > 10 µM
Substance: 1-(3-(1-(methylsulfonyl)-4-(7H-pyrrolo[2,3-d]pyrimidin-4-yl)piperazin-2-yl)phenyl)-3-phenylurea [compound 128]
